Assay results taken from patent US4983328A, “N-(4-(3-aminopropyl)aminobutyl)-2-(ω-gua nidino-fatty-acid-amido(-2-substituted-ethanamide, salt thereof, and process for preparation thereof” (Bristol-Myers Company, priority 1981, dated 1991).
Converted amounts (≈) assume the structure as drawn.

What was measured:
[1] = system: mouse leukemia L-1210 cells; assay: growth inhibitory activity to cancer cells in vitro (L-1210, 48 hours); format: cell-based; settings: for inhibition at 2.5 µg/mL: L1210, 2.5 mcg/ml; for inhibition at 5 µg/mL: L1210, 5 mcg/ml; for inhibition at 10 µg/mL: L1210, 10 mcg/ml; for inhibition at 20 µg/mL: L1210, 20 mcg/ml; for inhibition at 40 µg/mL: L1210, 40 mcg/ml; for inhibition at 80 µg/mL: L1210, 80 mcg/ml; for IC50: L1210, L-1210 cells, read-out: 50% inhibitory concentration; for inhibition at 160 µg/mL: L1210, 160 mcg/ml
Method: DBA/2 mice were implanted with 10^5 mouse leukemia L-1210 cells. The ascites collected asceptically from the mice after 4 days of feeding was washed three times with physiological saline to obtain L-1210 cells, which was then suspended in RPMI 1640 culture medium [G. E. Moore, Journal of the American Medical Association, Vol. 199, 519 (1967); H. J. Morton, In Vitro, Vol. 6, 89 (1970)] to which 10% fetal calf serum and 5 μM 2-mercaptoethanol had been added, and the resulting suspension was diluted to 5×10^4 L-1210 cells per 0.9 ml. A microplate carrying 0.9 ml of the cell suspension and 0.1 ml of the culture medium containing the sample being tested was kept in a carbon dioxide incubator at 37° C. After 48 hours of cultivation, the number of cells was measured by means of a Coulter Counter (Coulter Electronics, Inc., U.S.A.) to obtain the growth inhibition (%)=(1--T/C )×100=[1-(number of grown cells in medium containing sample/(number of grown cells in control medium)]×100. The 50% growth inhibitory concentration was calculated from the values of growth inhibition at varied sample concentrations. The results of tests on typical compounds of this invention for the growth inhibition of L-1210 cells were as shown in Table 6.

mouse leukemia L-1210 = assay: therapeutic effect on implanted cancer in mice (L-1210, survival over 30 days); format: in vivo, mouse (BDF1); settings: L1210, ip, 720 h, 6 days; for responders at 0.2 mg/kg / response vs control in vivo at 0.2 mg/kg: 0.20 mg/kg/day i.p.; for responders at 0.2 mg/kg / responders at 0.39 mg/kg / responders at 0.78 mg/kg / responders at 1.56 mg/kg / responders at 3.13 mg/kg / responders at 6.25 mg/kg / responders at 12.5 mg/kg / responders at 25 mg/kg / responders at 50 mg/kg: read-out: Number of mice survived for 30 days (converted); for response vs control in vivo at 0.2 mg/kg / response vs control in vivo at 0.39 mg/kg / response vs control in vivo at 0.78 mg/kg / response vs control in vivo at 1.56 mg/kg / response vs control in vivo at 3.13 mg/kg / response vs control in vivo at 6.25 mg/kg / response vs control in vivo at 12.5 mg/kg / response vs control in vivo at 25 mg/kg / response vs control in vivo at 50 mg/kg: read-out: Prolongation of survival period (%), T/C × 100; for responders at 0.39 mg/kg / response vs control in vivo at 0.39 mg/kg: 0.39 mg/kg/day i.p.; for responders at 0.78 mg/kg / response vs control in vivo at 0.78 mg/kg: 0.78 mg/kg/day i.p.; for responders at 1.56 mg/kg / response vs control in vivo at 1.56 mg/kg: 1.56 mg/kg/day i.p.; for responders at 3.13 mg/kg / response vs control in vivo at 3.13 mg/kg: 3.13 mg/kg/day i.p.; for responders at 6.25 mg/kg / response vs control in vivo at 6.25 mg/kg: 6.25 mg/kg/day i.p.; for responders at 12.5 mg/kg / response vs control in vivo at 12.5 mg/kg: 12.5 mg/kg/day i.p.; for responders at 25 mg/kg / response vs control in vivo at 25 mg/kg: 25 mg/kg/day i.p.; for responders at 50 mg/kg / response vs control in vivo at 50 mg/kg: 50 mg/kg/day i.p.
Source text: BDF1 strain male mice (5 weeks old) were each inoculated intraperitoneally with 10^5 mouse leukemia L-1210 cells and treated once a day by intraperitoneal injection with a test compound dissolved in physiological saline for 6 consecutive days beginning from the day of inoculation. The mice were then observed for 30 days to determine the rate of prolongation of survival period=100×T/C=100×(average survival days of treated group)/(average survival days of control group).

[2] = acute toxicity in mice (single intraperitoneal administration); settings: mouse, in vivo, ip; mice, single i.p.; read-out: LD50 (median lethal dose on single administration)
Method: (§1) In Table 8 median lethal doses (LD50) of typical compounds of this invention are shown, measured in mice upon single intraperitoneal administration, as well as maximum tolerated doses in terms of total dose when a fixed amount per unit body weight was administered intraperitoneally to mice once a day for 6 consecutive days.
*Median lethal dose on single administration.

[3] = cumulative toxicity in mice (maximum tolerated dose, once a day for 6 consecutive days); settings: mouse, in vivo, ip, i.p. once a day for 6 consecutive days, total dose, read-out: Maximum Tolerated Dose (total dose not causing death)
Method: as §1
**Maximum value of the total dose not causing death when a fixed amount
per unit body weight is administered to mice once a day for 6 consecutive

[4] = read-out: Growth inhibition (%), (1-T/C) × 100

| Compound | inhibition at 5 µg/mL [1, 4] | inhibition at 10 µg/mL [1, 4] | inhibition at 20 µg/mL [1, 4] | inhibition at 40 µg/mL [1, 4] | inhibition at 80 µg/mL [1, 4] | IC50 [1] | responders at 1.56 mg/kg (mouse leukemia L-1210) | response vs control in vivo at 1.56 mg/kg (mouse leukemia L-1210) | responders at 3.13 mg/kg (mouse leukemia L-1210) | response vs control in vivo at 3.13 mg/kg (mouse leukemia L-1210) | responders at 6.25 mg/kg (mouse leukemia L-1210) | response vs control in vivo at 6.25 mg/kg (mouse leukemia L-1210) | responders at 12.5 mg/kg (mouse leukemia L-1210) | response vs control in vivo at 12.5 mg/kg (mouse leukemia L-1210) | responders at 25 mg/kg (mouse leukemia L-1210) | response vs control in vivo at 25 mg/kg (mouse leukemia L-1210) | responders at 50 mg/kg (mouse leukemia L-1210) | response vs control in vivo at 50 mg/kg (mouse leukemia L-1210) | LD50 [2] | MTD [3] | further results |
| --- | --- | --- | --- | --- | --- | --- | --- | --- | --- | --- | --- | --- | --- | --- | --- | --- | --- | --- | --- | --- | --- |
| N=C(N)NCCCCCCC(O)CC(=O)NC(O)C(=O)NCCCCNCCCN (stereo not shown) [Compound 21, N-[4-(3-aminopropyl)aminobutyl]-2-(9-guanidino-3-hydroxynonanamido)-2-hydroxyethanamide] | 29.7% | 37.5% | 51.6% | 84% | 94.5% | 18 µg/mL (≈ 41.7 µM) | 0% | 114% | 0% | 129% | 0% | 164% | 0% | 200% | 0% | 229% | 0% | 0% | 25 to 50 mg/kg | > 150 mg/kg | inhibition at 1.25 µg/mL ([1]; L1210, 1.25 mcg/ml, read-out: Growth inhibition (%), (1-T/C) × 100): 14.6%; inhibition at 2.5 µg/mL [1, 4]: 21.5%; responders at 0.2 mg/kg (mouse leukemia L-1210): 0%; response vs control in vivo at 0.2 mg/kg (mouse leukemia L-1210): 100%; responders at 0.39 mg/kg (mouse leukemia L-1210): 0%; response vs control in vivo at 0.39 mg/kg (mouse leukemia L-1210): 100%; responders at 0.78 mg/kg (mouse leukemia L-1210): 0%; response vs control in vivo at 0.78 mg/kg (mouse leukemia L-1210): 100% |
| COC(NC(=O)CCCCCCCNC(=N)N)C(=O)NCCCCNCCCN (stereo not shown) [Compound 10, N-[4-(3-aminopropyl)aminobutyl]-2-(8-guanidinooctanamido)-2-methoxyethanamide] | 19.9% | 28.5% | 36.5% | 52.4% | 62.4% | 39 µg/mL (≈ 93.8 µM) | 0% | 100% | 0% | 100% | 0% | 107% | 0% | 129% | 0% | 0% | 0% | 0% | 12.5 to 25 mg/kg | > 75 mg/kg | inhibition at 160 µg/mL [1, 4]: 79.5% |
| COC(NC(=O)CCCCCCCCNC(=N)N)C(=O)NCCCCNCCCN (stereo not shown) [Compound 11, N-[4-(3-aminopropyl)aminobutyl]-2-(9-guanidinononanamido)-2-methoxyethanamide] | 35% | 52.2% | 59.4% | 71.8% | 77.9% | 10 µg/mL (≈ 23.3 µM) | 0% | 200% | 50% | > 357% | 75% | > 393% | 50% | > 357% | 0% | 0% | 0% | 0% | 12.5 to 25 mg/kg | > 75 mg/kg | responders at 0.2 mg/kg (mouse leukemia L-1210): 0%; response vs control in vivo at 0.2 mg/kg (mouse leukemia L-1210): 107%; responders at 0.39 mg/kg (mouse leukemia L-1210): 0%; response vs control in vivo at 0.39 mg/kg (mouse leukemia L-1210): 143%; responders at 0.78 mg/kg (mouse leukemia L-1210): 0%; response vs control in vivo at 0.78 mg/kg (mouse leukemia L-1210): 200% |
| N=C(N)NCCCCCCCC(=O)NC(O)C(=O)NCCCCNCCCN (stereo not shown) [Compound 5, N-[4-(3-aminopropyl)aminobutyl]-2-(8-guanidinooctanamido)-2-hydroxyethanamide] | 29.1% | 40% | 54.2% | 66% | 88.5% | 18 µg/mL (≈ 44.8 µM) | 0% | 104% | 0% | 118% | 0% | 125% | 0% | 181% | 0% | 306% | 0% | 0% | 25 to 50 mg/kg | > 150 mg/kg | inhibition at 2.5 µg/mL [1, 4]: 24.9%; inhibition at 160 µg/mL [1, 4]: 96.8% |
